Test system: CAL-51
Test: normalised response (% of control), CellTox Green; higher = less cell death (100 = DMSO, 0 = benzethonium chloride kill control)
Details: incubation time: 72 h
Procedure, shortened: (§1)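 Breast cancer cell lines were exposed for 72 h in 384-well plates to compound at 5 concentrations, 10-fold apart, covering a 10,000-fold range fixed for each compound. Plates were read for CellTox Green fluorescence and CellTiter-Glo luminescence and normalised to 0.1 % DMSO (100) and a positive kill control (0). Each value is the normalised signal at one concentration of the series.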

Compound	normalised response
Nc1ccccc1NC(=O)c1ccc(CNC(=O)OCc2cccnc2)cc1 [Entinostat] (10000 nM)	29%
Cc1cnc(NC(=O)Nc2cc(Br)c(C)cc2OC[C@@H]2CNCCO2)cn1 [Rabusertib] (1000 nM)	111%
N#Cc1ccc(C(c2ccc(C#N)cc2)n2cncn2)cc1 [Letrozole] (10000 nM)	116%
Nc1ncn([C@H]2C[C@H](O)[C@@H](CO)O2)c(=O)n1 [Decitabine] (10000 nM)	65.7%
CC[C@H](Nc1ncnc2[nH]cnc12)c1nc2cccc(F)c2c(=O)n1-c1ccccc1 [GS-1101] (10000 nM)	107%
CC1=C(/C=C/C(C)=C/C=C/C(C)=C/C(=O)O)C(C)(C)CCC1 [Tretinoin] (10000 nM)	98.5%
COc1cc([C@@H]2c3cc4c(cc3[C@@H](O[C@@H]3O[C@@H]5CO[C@@H](c6cccs6)O[C@H]5[C@H](O)[C@H]3O)[C@H]3COC(=O)[C@H]23)OCO4)cc(OC)c1O [Teniposide] (10000 nM)	13.6%

Test system: MDA-MB-436
Test: as above
Details: incubation time: 72 h
Procedure, shortened: as §1

Compound	normalised response
O=C(Cc1ccc(-c2ccc(OCCN3CCOCC3)cc2)cn1)NCc1ccccc1 [KX2-391] (10000 nM)	51%
CC[C@@H]1C(=O)N(C)c2cnc(Nc3ccc(C(=O)NC4CCN(C)CC4)cc3OC)nc2N1C1CCCC1 [BI 2536] (1000 nM)	102%
Nc1ccccc1NC(=O)c1ccc(CNC(=O)OCc2cccnc2)cc1 [Entinostat] (10000 nM)	38.9%
Cc1cnc(NC(=O)Nc2cc(Br)c(C)cc2OC[C@@H]2CNCCO2)cn1 [Rabusertib] (1000 nM)	104%
N#Cc1ccc(C(c2ccc(C#N)cc2)n2cncn2)cc1 [Letrozole] (10000 nM)	93.9%
Nc1ncn([C@H]2C[C@H](O)[C@@H](CO)O2)c(=O)n1 [Decitabine] (10000 nM)	73.2%
CC[C@H](Nc1ncnc2[nH]cnc12)c1nc2cccc(F)c2c(=O)n1-c1ccccc1 [GS-1101] (10000 nM)	111%
CC1=C(/C=C/C(C)=C/C=C/C(C)=C/C(=O)O)C(C)(C)CCC1 [Tretinoin] (10000 nM)	88.9%
COc1cc([C@@H]2c3cc4c(cc3[C@@H](O[C@@H]3O[C@@H]5CO[C@@H](c6cccs6)O[C@H]5[C@H](O)[C@H]3O)[C@H]3COC(=O)[C@H]23)OCO4)cc(OC)c1O [Teniposide] (10000 nM)	80.5%

Test system: CAL-120
Test: as above
Details: incubation time: 72 h
Procedure, shortened: as §1

Compound	normalised response
O=C(Cc1ccc(-c2ccc(OCCN3CCOCC3)cc2)cn1)NCc1ccccc1 [KX2-391] (10000 nM)	84%
CC[C@@H]1C(=O)N(C)c2cnc(Nc3ccc(C(=O)NC4CCN(C)CC4)cc3OC)nc2N1C1CCCC1 [BI 2536] (1000 nM)	79.6%
Nc1ccccc1NC(=O)c1ccc(CNC(=O)OCc2cccnc2)cc1 [Entinostat] (10000 nM)	88.6%
Cc1cnc(NC(=O)Nc2cc(Br)c(C)cc2OC[C@@H]2CNCCO2)cn1 [Rabusertib] (1000 nM)	106%
N#Cc1ccc(C(c2ccc(C#N)cc2)n2cncn2)cc1 [Letrozole] (10000 nM)	101%
Nc1ncn([C@H]2C[C@H](O)[C@@H](CO)O2)c(=O)n1 [Decitabine] (10000 nM)	103%
CC[C@H](Nc1ncnc2[nH]cnc12)c1nc2cccc(F)c2c(=O)n1-c1ccccc1 [GS-1101] (10000 nM)	98.2%
CC1=C(/C=C/C(C)=C/C=C/C(C)=C/C(=O)O)C(C)(C)CCC1 [Tretinoin] (10000 nM)	101%
COc1cc([C@@H]2c3cc4c(cc3[C@@H](O[C@@H]3O[C@@H]5CO[C@@H](c6cccs6)O[C@H]5[C@H](O)[C@H]3O)[C@H]3COC(=O)[C@H]23)OCO4)cc(OC)c1O [Teniposide] (10000 nM)	22.2%

Test system: DU-4475
Test: as above
Details: incubation time: 72 h
Procedure, shortened: as §1

Compound	normalised response
O=C(Cc1ccc(-c2ccc(OCCN3CCOCC3)cc2)cn1)NCc1ccccc1 [KX2-391] (10000 nM)	97.6%
CC[C@@H]1C(=O)N(C)c2cnc(Nc3ccc(C(=O)NC4CCN(C)CC4)cc3OC)nc2N1C1CCCC1 [BI 2536] (1000 nM)	95.1%
Nc1ccccc1NC(=O)c1ccc(CNC(=O)OCc2cccnc2)cc1 [Entinostat] (10000 nM)	73.1%
Cc1cnc(NC(=O)Nc2cc(Br)c(C)cc2OC[C@@H]2CNCCO2)cn1 [Rabusertib] (1000 nM)	102%
N#Cc1ccc(C(c2ccc(C#N)cc2)n2cncn2)cc1 [Letrozole] (10000 nM)	101%
Nc1ncn([C@H]2C[C@H](O)[C@@H](CO)O2)c(=O)n1 [Decitabine] (10000 nM)	104%
CC[C@H](Nc1ncnc2[nH]cnc12)c1nc2cccc(F)c2c(=O)n1-c1ccccc1 [GS-1101] (10000 nM)	95.5%
CC1=C(/C=C/C(C)=C/C=C/C(C)=C/C(=O)O)C(C)(C)CCC1 [Tretinoin] (10000 nM)	98%
COc1cc([C@@H]2c3cc4c(cc3[C@@H](O[C@@H]3O[C@@H]5CO[C@@H](c6cccs6)O[C@H]5[C@H](O)[C@H]3O)[C@H]3COC(=O)[C@H]23)OCO4)cc(OC)c1O [Teniposide] (10000 nM)	61.9%

Test system: BT-549
Test: as above
Details: incubation time: 72 h
Procedure, shortened: as §1

Compound	normalised response
O=C(Cc1ccc(-c2ccc(OCCN3CCOCC3)cc2)cn1)NCc1ccccc1 [KX2-391] (10000 nM)	64.9%
CC[C@@H]1C(=O)N(C)c2cnc(Nc3ccc(C(=O)NC4CCN(C)CC4)cc3OC)nc2N1C1CCCC1 [BI 2536] (1000 nM)	90.3%
Nc1ccccc1NC(=O)c1ccc(CNC(=O)OCc2cccnc2)cc1 [Entinostat] (10000 nM)	69.9%
Cc1cnc(NC(=O)Nc2cc(Br)c(C)cc2OC[C@@H]2CNCCO2)cn1 [Rabusertib] (1000 nM)	109%
N#Cc1ccc(C(c2ccc(C#N)cc2)n2cncn2)cc1 [Letrozole] (10000 nM)	102%
Nc1ncn([C@H]2C[C@H](O)[C@@H](CO)O2)c(=O)n1 [Decitabine] (10000 nM)	130%
CC[C@H](Nc1ncnc2[nH]cnc12)c1nc2cccc(F)c2c(=O)n1-c1ccccc1 [GS-1101] (10000 nM)	114%
CC1=C(/C=C/C(C)=C/C=C/C(C)=C/C(=O)O)C(C)(C)CCC1 [Tretinoin] (10000 nM)	76.9%
COc1cc([C@@H]2c3cc4c(cc3[C@@H](O[C@@H]3O[C@@H]5CO[C@@H](c6cccs6)O[C@H]5[C@H](O)[C@H]3O)[C@H]3COC(=O)[C@H]23)OCO4)cc(OC)c1O [Teniposide] (10000 nM)	59%

Test system: HCC1599
Test: as above
Details: incubation time: 72 h
Procedure, shortened: as §1

Compound	normalised response
O=C(Cc1ccc(-c2ccc(OCCN3CCOCC3)cc2)cn1)NCc1ccccc1 [KX2-391] (10000 nM)	67.6%
CC[C@@H]1C(=O)N(C)c2cnc(Nc3ccc(C(=O)NC4CCN(C)CC4)cc3OC)nc2N1C1CCCC1 [BI 2536] (1000 nM)	92.2%
Nc1ccccc1NC(=O)c1ccc(CNC(=O)OCc2cccnc2)cc1 [Entinostat] (10000 nM)	75.2%
Cc1cnc(NC(=O)Nc2cc(Br)c(C)cc2OC[C@@H]2CNCCO2)cn1 [Rabusertib] (1000 nM)	95.7%
N#Cc1ccc(C(c2ccc(C#N)cc2)n2cncn2)cc1 [Letrozole] (10000 nM)	101%
Nc1ncn([C@H]2C[C@H](O)[C@@H](CO)O2)c(=O)n1 [Decitabine] (10000 nM)	113%
CC[C@H](Nc1ncnc2[nH]cnc12)c1nc2cccc(F)c2c(=O)n1-c1ccccc1 [GS-1101] (10000 nM)	93.5%
CC1=C(/C=C/C(C)=C/C=C/C(C)=C/C(=O)O)C(C)(C)CCC1 [Tretinoin] (10000 nM)	102%
COc1cc([C@@H]2c3cc4c(cc3[C@@H](O[C@@H]3O[C@@H]5CO[C@@H](c6cccs6)O[C@H]5[C@H](O)[C@H]3O)[C@H]3COC(=O)[C@H]23)OCO4)cc(OC)c1O [Teniposide] (10000 nM)	67%

Test system: CAL-148
Test: as above
Details: incubation time: 72 h
Procedure, shortened: as §1

Compound	normalised response
O=C(Cc1ccc(-c2ccc(OCCN3CCOCC3)cc2)cn1)NCc1ccccc1 [KX2-391] (10000 nM)	84.2%
CC[C@@H]1C(=O)N(C)c2cnc(Nc3ccc(C(=O)NC4CCN(C)CC4)cc3OC)nc2N1C1CCCC1 [BI 2536] (1000 nM)	70.4%
Nc1ccccc1NC(=O)c1ccc(CNC(=O)OCc2cccnc2)cc1 [Entinostat] (10000 nM)	46.4%
Cc1cnc(NC(=O)Nc2cc(Br)c(C)cc2OC[C@@H]2CNCCO2)cn1 [Rabusertib] (1000 nM)	58.9%
N#Cc1ccc(C(c2ccc(C#N)cc2)n2cncn2)cc1 [Letrozole] (10000 nM)	97.9%
Nc1ncn([C@H]2C[C@H](O)[C@@H](CO)O2)c(=O)n1 [Decitabine] (10000 nM)	95.5%
CC[C@H](Nc1ncnc2[nH]cnc12)c1nc2cccc(F)c2c(=O)n1-c1ccccc1 [GS-1101] (10000 nM)	79.9%
CC1=C(/C=C/C(C)=C/C=C/C(C)=C/C(=O)O)C(C)(C)CCC1 [Tretinoin] (10000 nM)	102%
COc1cc([C@@H]2c3cc4c(cc3[C@@H](O[C@@H]3O[C@@H]5CO[C@@H](c6cccs6)O[C@H]5[C@H](O)[C@H]3O)[C@H]3COC(=O)[C@H]23)OCO4)cc(OC)c1O [Teniposide] (10000 nM)	38.7%

Test system: Hs578T
Test: as above
Details: incubation time: 72 h
Procedure, shortened: as §1

Compound	normalised response
O=C(Cc1ccc(-c2ccc(OCCN3CCOCC3)cc2)cn1)NCc1ccccc1 [KX2-391] (10000 nM)	26.2%
CC[C@@H]1C(=O)N(C)c2cnc(Nc3ccc(C(=O)NC4CCN(C)CC4)cc3OC)nc2N1C1CCCC1 [BI 2536] (1000 nM)	29.2%
Nc1ccccc1NC(=O)c1ccc(CNC(=O)OCc2cccnc2)cc1 [Entinostat] (10000 nM)	110%
Cc1cnc(NC(=O)Nc2cc(Br)c(C)cc2OC[C@@H]2CNCCO2)cn1 [Rabusertib] (1000 nM)	103%
N#Cc1ccc(C(c2ccc(C#N)cc2)n2cncn2)cc1 [Letrozole] (10000 nM)	66.7%
Nc1ncn([C@H]2C[C@H](O)[C@@H](CO)O2)c(=O)n1 [Decitabine] (10000 nM)	123%
CC[C@H](Nc1ncnc2[nH]cnc12)c1nc2cccc(F)c2c(=O)n1-c1ccccc1 [GS-1101] (10000 nM)	109%
CC1=C(/C=C/C(C)=C/C=C/C(C)=C/C(=O)O)C(C)(C)CCC1 [Tretinoin] (10000 nM)	75.1%
COc1cc([C@@H]2c3cc4c(cc3[C@@H](O[C@@H]3O[C@@H]5CO[C@@H](c6cccs6)O[C@H]5[C@H](O)[C@H]3O)[C@H]3COC(=O)[C@H]23)OCO4)cc(OC)c1O [Teniposide] (10000 nM)	45.6%

Test system: MCF-10A
Test: as above
Details: incubation time: 72 h
Procedure, shortened: as §1

Compound	normalised response
O=C(Cc1ccc(-c2ccc(OCCN3CCOCC3)cc2)cn1)NCc1ccccc1 [KX2-391] (10000 nM)	50.1%
CC[C@@H]1C(=O)N(C)c2cnc(Nc3ccc(C(=O)NC4CCN(C)CC4)cc3OC)nc2N1C1CCCC1 [BI 2536] (1000 nM)	100%
Nc1ccccc1NC(=O)c1ccc(CNC(=O)OCc2cccnc2)cc1 [Entinostat] (10000 nM)	90.9%
Cc1cnc(NC(=O)Nc2cc(Br)c(C)cc2OC[C@@H]2CNCCO2)cn1 [Rabusertib] (1000 nM)	109%
N#Cc1ccc(C(c2ccc(C#N)cc2)n2cncn2)cc1 [Letrozole] (10000 nM)	103%
Nc1ncn([C@H]2C[C@H](O)[C@@H](CO)O2)c(=O)n1 [Decitabine] (10000 nM)	92.6%
CC[C@H](Nc1ncnc2[nH]cnc12)c1nc2cccc(F)c2c(=O)n1-c1ccccc1 [GS-1101] (10000 nM)	102%
CC1=C(/C=C/C(C)=C/C=C/C(C)=C/C(=O)O)C(C)(C)CCC1 [Tretinoin] (10000 nM)	73.5%
COc1cc([C@@H]2c3cc4c(cc3[C@@H](O[C@@H]3O[C@@H]5CO[C@@H](c6cccs6)O[C@H]5[C@H](O)[C@H]3O)[C@H]3COC(=O)[C@H]23)OCO4)cc(OC)c1O [Teniposide] (10000 nM)	59.6%

Test system: MDA-MB-468
Test: normalised response (% of control), CellTiter-Glo; higher = more viable cells (100 = DMSO, 0 = benzethonium chloride kill control)
Details: incubation time: 72 h
Procedure, shortened: as §1

Compound	normalised response
O=C(Cc1ccc(-c2ccc(OCCN3CCOCC3)cc2)cn1)NCc1ccccc1 [KX2-391] (10000 nM)	28%
CC[C@@H]1C(=O)N(C)c2cnc(Nc3ccc(C(=O)NC4CCN(C)CC4)cc3OC)nc2N1C1CCCC1 [BI 2536] (1000 nM)	42.3%
Nc1ccccc1NC(=O)c1ccc(CNC(=O)OCc2cccnc2)cc1 [Entinostat] (10000 nM)	19.1%
Cc1cnc(NC(=O)Nc2cc(Br)c(C)cc2OC[C@@H]2CNCCO2)cn1 [Rabusertib] (1000 nM)	102%
